The values that follow come from patent US20150344535A1, “NEUROTROPHIN-TYROSINE KINASE RECEPTOR SIGNALING” (THE UNIVERSITY OF QUEENSLAND, priority 2012, published 2015).

The test system of one experiment is pErk1/2 and pAkt. In words: Western blot of pErk1/2 and pAkt in PC12 cell lysates. In kind it is cell-based. The note with it: 24 hours. As to the method: In biochemical experiments, PC12 and HEK293 cells were lysed for 20 minutes on ice in lysis buffer as described by (Ceni et al., 2010). Briefly, the lysis buffer contained 10 mM Tris-HCl, 150 mM NaCl, 2 mM EDTA, 1% (v/v) NP-40, 1% (v/v) TX-100, 10% Glycerol, 1 mM PMSF, 1 mM Sodium Orthovanadate, 1 μM BB94, 1% (v/v) Roche protease inhibitor cocktail and pH 8.0 (Ceni et al., 2010).
Immunoprecipitation was performed by the addition of 75 μl (1:2) protein-G sepharose: PBS and incubation end-over-end for 16 hours at 4° C. The immunoprecipitate was washed 4 times with 1 ml of PBS then eluted in 60 μl 2×LDS sample buffer. For immunoblotting, samples were boiled for 5 minutes, separated by SDS-PAGE and transferred onto nitrocellulose membranes, then western blotted using standard protocols (see Example 1 for antibodies used).
The observed functional effects on neurite outgrowth and survival were next correlated with enhanced activation of signal transduction pathways that mediate the trophic effects of TrkA. Lysates of cells treated for 24 hours with NGF alone or in combination with c29 or scrambled peptide were immunoblotted for pErk1/2 (neurite outgrowth), and the serine/threonine protein kinase Akt (survival). […] Total levels of Erk1/2 or Akt were unaffected by any treatment (FIG. 6 A, B).
On the technique in general: In western blotting, separated proteins are transferred to a membrane and probed.

Experiment [1] has as its system PC12 cells. In words: PC12 cell viability / NGF withdrawal (acid phosphatase assay). In kind it is cell-based. As to the method:
To investigate the role of c29 peptide in NGF-withdrawal assays, NGF-containing medium in PC12 cultures was exchanged for NGF-free medium on day 3, and cells were treated with c29 or scrambled peptide and reduced NGF concentrations (1 ng or 10 ng/ml). Treated cells were cultured for 2 days and cell viability was determined via quantification of cytosolic acid phosphatase enzyme activity as described in (Yang et al., 1996).
Briefly, cells were grown in 96-well plates at densities of 5000 cells per well. The culture medium in treated cell assays was removed from and each well was washed once with 200 μl phosphate buffered saline (PBS, pH 7.2). To each well, 100 μl of sodium acetate and p-nitrophenyl phosphate buffer containing 0.1 M sodium acetate (pH 5.0), 0.1% Triton X-100, and 5 mM p-nitrophenyl phosphate was added. The plates were placed in a 37° C. incubator for 30 minutes. The reaction was stopped with the addition of […] of 1 N NaOH, and colour development absorbance was assayed at 405 nm using a microplate reader (POLARstar OPTIMA, USA). […] This background value was typically 0.03-0.1 absorbance units.

Another experiment relates to HEK293 cells. The experiment can be described thus: NGF-FITC binding by flow cytometry, non-transfected HEK293 cells. On the procedure: Background fluorescence of HEK293 cells was non-transfected cells (±c29 or scrambled peptide treatment) treated with 26 nM NGF-FITC. For PC12 cells, the control population was cells that had not been treated with NGF-FITC. Analysis of real-time NGF-FITC receptor binding experiments was performed on 550,000-600,000 cells at 4° C. in serum free NB medium and binding kinetics were calculated from raw data files compressed to 50,000 binding events using FlowJo and MatLab Software. Data was plotted with the use of GraphPad Prism.
Only NGF-FITC preparations that promoted equivalent neurite outgrowth of PC12 cells to that of unlabelled NGF were used in binding experiments. To investigate NGF binding, PC12 or transfected HEK293 cells were serum starved for 4 hours, harvested, washed with Dulbecco's Modified Eagle Medium (DMEM), and counted. When used, c29 or scrambled peptide were added to cultures for the third hour of the serum starvation procedure. […] For binding competition assays, following 1 hour in NGF-FITC, cells were washed with ice-cold PBS containing 0.1% normal bovine serum and incubated on ice with unlabeled NGF at concentrations ranging from 100 pM to 10 μM for 30 minutes, then washed twice in PBS before being analysed on a BD Flow Cytometer FACS Scan (Becton-Dickinson).
In general terms: Flow cytometry measures light scatter and fluorescence of single cells or particles in a stream.

The test system of experiment [2] is primary E13 motor neurons. In words: Primary motor neuron survival and growth factor withdrawal. In kind it is cell-based, mouse.
Method: Briefly, pregnant mothers were sacrificed by cervical dislocation and the uterus removed by Caesarean section and placed in Neurobasal medium. Lumbar spinal cords were dissected from E13 embryos on ice. Batches of 2 or 3 spinal cords were incubated in 1 mL 0.05% trypsin-ETDA for 10 minutes at 37° C. in 15 mL tubes. To prevent further trypsinisation, 0.14 mg/mL trypsin inhibitor solution was added and the tissue centrifuged at 100×g for 7 minutes, without acceleration or deceleration. The supernatant was removed and the spinal cord tissue was resuspended in 1 mL of Neurobasal Medium (NB). In order to obtain a single cell suspension, each batch of 2-3 spinal cords was agitated manually for 2 minutes. The suspension was allowed to settle and the supernatant collected after being filtered through a 100 μm sieve. The remaining tissue was further triturated ˜8 times through a P200 pipette and filtered through a 100 μm sieve. The combined supernatants were then separated by centrifugation on a 5 ml cushion of 9% (vol/vol) OptiPrep® gradient in NB containing 2% B27 supplement for 45 min at 850×g, without acceleration or deceleration. To prevent toxicity following Optiprep® separation, the layer containing MNs was harvested into 10 mL of NB containing 10% HS, and the cell suspension was centrifuged at 900×g for 7 minutes at 24° C., without acceleration or deceleration. The supernatant was removed and the cell pellet was resuspended in 1 mL of NB medium.
The number of viable motor neurons was counted on a haemocytometer using 0.08% trypan blue and neurons plated in 4-well culture dishes at a density of 3,000 cells per well in 100 μL NB containing 10% HS. […] Primary motor neurons were maintained at 37° C. in a humidified atmosphere with 5% CO2 and culture medium was replaced at day 1 and 3. Phase contrast images of motor neurons were taken using an Olympus (6IX81) microscope after motor neurons were grown in vitro for up to 7 days.
To assess the effects of c29 peptide on motor neuronal survival in limiting growth factor concentrations, isolated spinal motor neurons were plated and treated with 0.01, 0.1 or 1.0 ng/ml of BDNF in the presence of 1 μm PTD4-linked c29 or scrambled peptide, and cultured for 5 days with the addition of fresh BDNF and peptide treatments on day 2 and 4. For growth factor-withdrawal assays, following initial plating in 1 ng/ml of BDNF, CNTF or GDNF, cultures were washed four times with serum-free Neurobasal (NB) medium, after which the medium was replaced with medium containing 1-0.01 ng/ml of BDNF, CNTF or GDNF and 1 μM PTD4-linked c29 or scrambled peptides, as indicated. For assays investigating the effect of c29 on NGF-mediated motor neuron death, cultures were grown in 1 ng/ml BDNF, CNTF or GDNF for 1 day, before being treated with 100 ng/ml 2.5S NGF in and 1 μM PTD4-linked c29 or scrambled peptide, as indicated. Motor neurons were counted on day 1, and to assess the effects of various treatments days 3 and 5 (4 separate 10×10 grid fields of each well per experiment).
A short description of experiment [3]: Fear extinction / return of fear in mice. In kind it is in vivo, mouse. As to conditions: female mice, infusion into infralimbic prefrontal cortex, VEH RET vs C29 RET, FIG. 12. The source says: Baker-Andresen et al. Learn Mem. 2013 Apr. 15; 20(5):237-40.
Following fear conditioning (Example 17), exposure to the tone without the shock is termed extinction (removal of the memory).
Researchers can time the duration of this response. Repeated exposure to the tone without the shock is termed extinction (removal of the memory).

Experiment [4] concerns PC12 cells. The experiment can be described thus: PC12 cell neurite outgrowth in response to EGF. Type of experiment: cell-based. The note with it: vs no peptide or scrambled peptide. On the procedure:
To assess the effect of p75^NTR constructs (FIG. 2) or c29 peptide on TrkA-mediated neuritogenesis, transfected PC12 cells were grown in the presence of 100 ng/ml NGF for 3 days, with fresh medium and NGF treatments added on day 2. Cells were then imaged live on an Olympus (IX81) microscope fitted with a CO2 atmospheric chamber, using analySIS software. Four random images of 80-100 cells were taken for each treatment condition and images were determined by measuring polygon neurite length of all cells in each image. Data analysis was performed using Graphpad PRISM.
To determine whether the effect of the c29 peptide on enhancement of neurite outgrowth was NGF and TrkA specific, we repeated the experiment using EGF to stimulate differentiation.

Another experiment deals with TrkA and p75^NTR. In words: Surface biotinylation of receptors in PC12 cells. As to conditions: 1 μM peptide, with or without NGF. Type of experiment: cell-based. As to the method:
FIG. 10: The juxtamembrane domain of p75^NTR increases the association of NGF to cells expressing TrkA. (A and B) Dose response graphs of the proportion (%) of PC12 cells with fluorescence intensity above background following treatment with 26 […] NGFFITC, a FITC-conjugated antibody to the extracellular domain of p75^NTR (A), or an antibody to TrkA (detected using an anti-rabbit Alexa 594 secondary) (B), after pretreatment with increasing concentrations of […] peptide. (n=3 experiments per data point; mean±SEM *p<0.05, **p<0.01) (C) Representative western blots (WB) of TrkA and p75^NTR present in streptavidin precipitates (surface biotin), or lysate flow through of PC12 cells that had been treated for 1 hour with NGF and/or c29 and scrambled (SC) peptide, prior to the surface proteins being labelled with biotin for 90 minutes on ice.

Setting [5] is: 10 ng/ml NGF, relative to 10 ng/ml NGF and scrambled peptide.

Entries after “also recorded” stand apart in the source; their conditions may differ.

On to “KRWNSCKQNKQGANSRPVNQTPPPEGEKL (c29- Fragment of p75ICD) [29 amino acid peptide of the p75NTR juxtamembrane Chopper domain; delivered to cells linked to PTD4 or disulfide-linked carrier]”, for which, in the experiment on pErk1/2 and pAkt (setting [5]), the “increase in pAkt” value amounted to 2 fold and the “increase in pErk1/2” value turned out to be 2 fold. In the experiment on pErk1/2 and pAkt (absence of NGF), the pAkt signalling entry is “no effect” and the pErk1/2 signalling entry is “no effect”. Besides, the “survival rate of cells” value in the experiment with PC12 cells [1] (1 ng/ml NGF after differentiation in 100 ng/ml NGF) is on record as “significantly increased the survival rate”. Also, the cell survival entry with PC12 cells [1] (absence of NGF) is “did not affect on cell survival”. Also, in the experiment with PC12 cells [1] (medium lacking NGF), the “basal PC12 cell growth and proliferation” value is “no effect on basal PC12 cell growth and proliferation”. For the same sequence, the “fluorescence of nontransfected cells incubated with peptide and NGF-FITC” value with HEK293 cells is given as “only background levels of fluorescence”. For the same sequence, in experiment [2] (1 ng/ml BDNF plus NGF), the “NGF-induced cell death of motor neurons” value is “significantly protected from NGF-induced cell death”. Moreover, the “neuronal survival after BDNF withdrawal” value in experiment [2] (10-fold lower BDNF, vs scrambled peptide) is “significantly increased neuronal survival”. For the same sequence, the “survival of motor neurons following CNTF or GDNF withdrawal” value in experiment [2] (10-fold lower CNTF or GDNF) is “no effect on the survival of motor neurons”. Besides, the motor neuron survival entry in experiment [2] (BDNF 0.01-1.0 ng/ml, after 5 days, vs control cultures) is listed as “increased survival”. Further, the return of fear entry in experiment [3] is listed as “prevents the return of fear; also recorded: blocked the return of fear”. Also, in the experiment with PC12 cells [4], the “neuritogenesis in EGF-treated cultures” value is given as “no effect on neuritogenesis”. Moreover, the “surface or total receptor levels of TrkA and p75^NTR” value with TrkA and p75^NTR is “no significant difference”.
